One assay addresses T1, A. aegypti PK2-R (Aedes aegypti, UniProt V9P4J1).
T1 sequence (V9P4J1 1-638): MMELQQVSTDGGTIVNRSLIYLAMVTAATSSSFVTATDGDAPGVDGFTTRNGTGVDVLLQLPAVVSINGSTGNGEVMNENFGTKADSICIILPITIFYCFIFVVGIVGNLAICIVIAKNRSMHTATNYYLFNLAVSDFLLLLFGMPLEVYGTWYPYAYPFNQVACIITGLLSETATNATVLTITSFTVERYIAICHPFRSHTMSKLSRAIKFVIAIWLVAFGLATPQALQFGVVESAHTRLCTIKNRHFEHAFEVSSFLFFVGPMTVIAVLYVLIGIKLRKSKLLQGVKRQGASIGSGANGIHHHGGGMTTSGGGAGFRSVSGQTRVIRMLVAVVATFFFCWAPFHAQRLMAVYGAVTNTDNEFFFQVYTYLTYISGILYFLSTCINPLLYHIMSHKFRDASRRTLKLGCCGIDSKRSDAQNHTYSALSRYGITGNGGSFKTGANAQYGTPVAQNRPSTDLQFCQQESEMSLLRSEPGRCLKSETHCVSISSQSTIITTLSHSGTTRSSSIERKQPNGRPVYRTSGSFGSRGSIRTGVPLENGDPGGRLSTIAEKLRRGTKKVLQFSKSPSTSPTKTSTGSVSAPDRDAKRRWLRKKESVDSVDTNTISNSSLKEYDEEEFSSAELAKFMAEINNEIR
Nature of the assay: Heterologous functional receptor assay (aequorin bioluminescence), PK2-R. The class given is cell-based. Conditions: for EC50: CHO-K1 cells transiently expressing PK2-R and aequorin, luminescence normalized to 50 μM ATP, two biological replicates, 4-8 technical replicates each, read-out: EC50, activation of A. aegypti PK2-R. An excerpt: The complete open reading frame was amplified based on the partial ([Nene et al., 2007]) and complete sequences ([Choi et al., 2013]) reported earlier for the A. aegypti PK1-R (Genbank accession: EAT35008.1) and PK2-R (Genbank accession: KC155994.1). Forward 5′-[…]-3′ (PK1-R) or 5′-[…]-3′ (PK2-R) and reverse 5′-[…]-3′ (PK1-R) or 5′-[…]-3′ (PK2-R) primers were designed over the start and stop codons (underlined), respectively, and used to amplify the complete coding sequence using Q5 High-Fidelity DNA polymerase following manufacturer recommendations (New England Biolabs, Whitby, ON). […] The resulting products were cloned into pGEM-T Easy sequencing vector, and miniprep samples were sequenced to verify base accuracy. The receptor constructs were excised using standard restriction enzyme digestion and subcloned into the mammalian expression vector, pcDNA 3.1^+ (Life Technologies, Burlington, ON, Canada). Transfection quality plasmid DNA was purified from an overnight bacterial culture using the PureLink MidiPrep Kit (Invitrogen, Burlington, ON, Canada) following manufacturer guidelines.
Chinese hamster ovary cells (CHO-K1) described previously ([Paluzzi et al., 2012]; [Gondalia et al., 2016]; [Wahedi and Paluzzi, 2018]) were grown in Dulbecco’s modified eagles medium: nutrient F12 (DMEM:F12) media containing 10% heat-inactivated fetal bovine serum (FBS; Wisent, St. Bruno, QC, Canada), 200 μg/mL geneticin, and antimycotic-antibiotic mixture as described previously ([Wahedi and Paluzzi, 2018]). […] Various concentrations of synthesized PK peptides and other peptides (purity > 90%; Genscript, Piscataway, NJ, United States) were prepared in BSA media and loaded in quadruplicate into white 96-well luminescence plates (Greiner Bio-One, Germany).
Luminescence responses to A. aegypti CAPA-1 (GPTVGLFAFPRV-NH2), CAPA-2 (pQGLVPFPRV-NH2) and CAPA-PK1 (AGNSGANSGMWFGPRL-NH2) peptides, along with the R. prolixus PK2 orthologs, PK2a (NTVNFSPRL-NH2), and PK2b (SPPFAPRL-NH2) were examined. A list of peptides used in this study and sequence comparison to native A. aegypti pyrokinin peptides is found in Supplementary Table S1. Cells prepared for the functional assay were loaded into each well of the plate using an automated injector unit and luminescent response was measured with a Synergy 2 Multi-Mode Microplate Reader (BioTek, Winooski, VT, United States). Negative controls were carried out using BSA media alone whereas 50 μM ATP, which activates endogenously expressed purinoceptors ([Iredale and Hill, 1993]; [Michel et al., 1998]), was used as a positive control. Luminescence responses were normalized to ATP responses and analyzed in GraphPad Prism 7.02 (GraphPad Software, San Diego, CA, United States). EC50 values were determined using dose-response curves from multiple biological replicates.

For assay [1], the system named is isolated ilea of female A. aegypti. As to the kind of experiment: Ileal motility assay (video recordings). Also on record: species or system Aedes aegypti. Conditions: Figure 7, 1 μM, RhoprMIP-7 added together with 1 μM RhoprPK2b, mean of 17 preparations. The method, then:
Hindgut contraction assays were conducted on isolated […] of female A. aegypti. […] The isolated tissue was secured with minutien pins within a Sylgard-lined petri-dish. Given its high sequence similarity to endogenous A. aegypti PK2 peptides (Supplementary Table S1), we used the R. prolixus PK2b peptide ([Paluzzi and O'Donnell, 2012]), henceforth referred to as RhoprPK2b, for motility bioassays. Commercially synthesized peptides (Genscript, Piscataway, NJ, United States), […] ([…]) and RhoprPK2[…]), were used to examine myomodulatory activity. Serotonin (5-hydroxytryptamine, 5-HT; Sigma-Aldrich, Oakville, ON, Canada), previously shown to stimulate A. aegypti hindgut contractions ([Messer and Brown, 1995]), was used as a stimulatory control. Given the inhibitory properties of myoinhibitory peptides (having the consensus W(X6)W-NH2 carboxyl terminus) on insect hindgut motility ([Lange et al., 2012]), RhoprMIP-7 ([…]; Genscript, Piscataway, NJ, United States; [Paluzzi et al., 2015]) was used as an inhibitory control. […] Unlike the rectum, the mosquito ileum produces weaker contractions that we were unable to measure using an impedance converter as described above. […] The dissected gut was pinned in the midgut and rectum to allow the ileum to freely contract in saline and following treatments. Contractions were recorded for 2 min in saline that was used for baseline activity measurements, followed by three subsequent 2-min recordings, including: […] The RhoprPK2b was added along with the stimulatory or inhibitory compound (5-HT or RhoprMIP-7, respectively), to maintain its 1 μM concentration in the bath. […] To account for any potential changes in tissue contractile activity upon adding solutions to the bath, each of these variables were measured relative to baseline saline recordings of the same preparation as a ratio of change, where a value above or below one indicates an increase or a decrease, (respectively), in the rate, duration or length between each contraction in response to the treatment.

Assay [2] relates to rectal pad epithelia of female A. aegypti. Nature of the assay: Scanning ion-selective electrode technique (SIET), Na+ flux. Set-up: species or system Aedes aegypti. The method, then: Female mosquitoes were anesthetized on ice for 3 min and dissected in Ca^2+-free A. aegypti saline, as described previously ([Paluzzi et al., 2014]), to limit spontaneous hindgut contractions during ion flux measurements. The isolated rectum was then transferred to a Petri dish with saline, pre-coated with poly-L-lysine ([Paluzzi et al., 2014]) to allow the tissue to adhere to the bottom of the dish.
AedaeCAPA-PK1 or D. melanogaster Droso-leucokinin (NSVVLGKKQRFHSWG-NH2, Genscript, Piscataway, NJ, United States; provided by Prof. Dick Nässel, Stockholm University, Sweden) were solubilized in double distilled water as a 1 mM stock and then diluted in the above-mentioned Ca^2+-free A. aegypti saline to achieve a 1 μM final concentration. Control measurements were obtained by applying an equal volume of saline only, referred to as saline control treatments. […]
SIET measurements were obtained through the Automated Scanning Electrode Technique (ASET) software (Science Wares, East Falmouth, MA, United States). […] Voltage gradients were measured as the microelectrode moved perpendicularly to the tissue surface between two points separated by a distance of 100 μm. […] Following background voltage readings, the ion-selective microelectrode tip was positioned at a distance of 2 μm from the rectal pad epithelia. […] Following measurements at the rectal pad sites, background voltage readings were again recorded at a distance of 3 mm away from the tissue.
Calculation of ion flux used in this study has been described previously ([Paluzzi et al., 2014]). […] The change in flux upon treatment application was calculated by subtracting flux values obtained during saline measurements, in which a positive change indicates increased ion absorption, and a negative change represents a decrease in absorption.

Where a SMILES comes first, the peptide text is derived from it.

Regarding `CC(C)C[C@H](NC(=O)CNC(=O)[C@@H](NC(=O)[C@@H](NC(=O)[C@@H]1CCCN1C(=O)CN)[C@@H](C)O)C(C)C)C(=O)N[C@@H](Cc1ccccc1)C(=O)N[C@@H](C)C(=O)N[C@@H](Cc1ccccc1)C(=O)N1CCC[C@H]1C(=O)N[C@@H](CCCNC(=N)N)C(=O)N[C@H](C(N)=O)C(C)C` [AedaeCAPA-1] (H-GPTVGLFAFPRV-NH2), the “activation of PK2-R relative to the highly potent pyrokinins” value at A. aegypti PK2-R (CHO-K1 cells expressing PK2-R, very high concentrations) is reported as at most 25%.
For `CSCC[C@H](NC(=O)CNC(=O)[C@H](CO)NC(=O)[C@H](CC(N)=O)NC(=O)[C@H](C)NC(=O)CNC(=O)[C@H](CO)NC(=O)[C@H](CC(N)=O)NC(=O)CNC(=O)[C@H](C)N)C(=O)N[C@@H](Cc1c[nH]c2ccccc12)C(=O)N[C@@H](Cc1ccccc1)C(=O)NCC(=O)N1CCC[C@H]1C(=O)N[C@@H](CCCNC(=N)N)C(=O)N[C@@H](CC(C)C)C(N)=O` [AedaeCAPA-PK1] (H-AGNSGANSGMWFGPRL-NH2), at A. aegypti PK2-R, the EC50 amounted to 158 nM.
Turning to `CC(C)C[C@H](NC(=O)[C@H](CCCNC(=N)N)NC(=O)[C@@H]1CCCN1C(=O)[C@H](CO)NC(=O)[C@H](Cc1ccccc1)NC(=O)[C@H](CC(N)=O)NC(=O)[C@@H](NC(=O)[C@@H](NC(=O)[C@@H](N)CC(N)=O)[C@@H](C)O)C(C)C)C(N)=O` [RhoprPK2a] (H-NTVNFSPRL-NH2), the EC50 on A. aegypti PK2-R was found to be 17.5 nM.
`CC(C)C[C@H](NC(=O)[C@H](CCCNC(=N)N)NC(=O)[C@@H]1CCCN1C(=O)[C@H](C)NC(=O)[C@H](Cc1ccccc1)NC(=O)[C@@H]1CCCN1C(=O)[C@@H]1CCCN1C(=O)[C@@H](N)CO)C(N)=O` [RhoprPK2b] (H-SPPFAPRL-NH2): the EC50 at A. aegypti PK2-R stood at 8.54 nM.
Regarding AWNSLHGGW-NH2 [RhoprMIP-7], in assay [1], the “duration of each ileal contraction relative to baseline” value is on record as “about 1.9 fold”, the “ileal contraction frequency relative to baseline” value was determined as 0.38 fold and the “relaxation duration (length of time between ileal contractions) relative to baseline” value is on record as 3.9 fold.
Turning to “NSVVLGKKQRFHSWG-NH2 [Droso-leucokinin, D. melanogaster kinin analog used in Na+ transport measurements]”, in assay [2] (1 μM in Ca2+-free saline, absorptive female recta only, mean ± SEM of 10 to 14 preparations, SEM), the “decrease in Na+ absorption across rectal pad epithelia relative to initial transport in saline” value is listed as 201.6 ± 39.0 pmol cm^–2 s^–1. Further, the “fold decrease in Na+ absorption compared to saline control” value in assay [2] (1 μM, female rectal pad epithelia) is reported as “four-fold decrease”. For the same molecule, in assay [2] (1 μM, one-way ANOVA and Tukey's post hoc test), the “significance of change in Na+ transport versus saline alone” value was “significant”.
